Measurements reported in US11370763B2, “Compounds and compositions for treating conditions associated with NLRP activity” (Novartis AG, priority 2017, dated 2022).
Where two headings read alike, the source gives them in different places.

System: IL-1β production in PMA-differentiated THP-1 cells
Assay: IL-1β production in PMA-differentiated THP-1 cells stimulated with gramicidin (hTHP-1 assay containing 2% fetal bovine serum; Procedures 1-3)
Format: cell-based, human
Details: Homo sapiens, THP-1, hTHP-1 assay containing 2% fetal bovine serum, read-out: hTHP-1 IC50 (Average IC50 of compounds in hTHP-1 assay)
Method in brief: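 THP-1 cells differentiated with PMA (20 ng/ml, 16-18 h), replated in 2% FBS RPMI (50,000 cells/well), preincubated 1 h with compound (top final 100 μM, 3-fold steps, 0.37% DMSO), then stimulated 2 h with gramicidin (5 μM). Supernatant IL-1β measured by HTRF.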

IC50 (class symbols) | IC50 (given as numeric bound) | SMILES
1 to 5 µM |  | Cc1cc(CN(C)C)ccc1S(N)(=O)=NC(=O)Cc1c(C(C)C)cc(OC(F)F)cc1C1CC1 (centres unmarked) [Example 26, 2-(2-cyclopropyl-4-(difluoromethoxy)-6-isopropylphenyl)-N-(4-((dimethylamino)methyl)-2-methylphenylsulfonimidoyl) acetamide]
1 to 5 µM |  | CC(C)c1cc(OC(F)F)cc(C(C)C)c1CC(=O)N=S(N)(=O)c1ccc(CN(C)C)cc1 (centres unmarked) [Example 27, 2-(4-(difluoromethoxy)-2,6-diisopropylphenyl)-N-(4-((dimethylamino)methyl)phenyl-sulfonimidoyl)acetamide]
1 to 5 µM |  | CC(C)c1cc(C#N)cc(C(C)C)c1CC(=O)N=S(N)(=O)c1ccc(CN(C)C)cc1 (centres unmarked) [Example 28, 2-(4-cyano-2,6-diisopropylphenyl)-N-(4-((dimethylamino)methyl)phenyl-sulfonimidoyl)acetamide]
5 to 30 µM |  | CC(C)c1cc(C#N)cc(C2CC2)c1CC(=O)N=S(N)(=O)c1ccc(CN(C)C)cc1 (centres unmarked) [Example 29, 2-(4-cyano-2-cyclopropyl-6-isopropylphenyl)-N-(4-((dimethylamino)methyl)phenyl-sulfonimidoyl)acetamide]
5 to 30 µM |  | CCc1cc(C#N)cc(C(C)C)c1CC(=O)N=S(N)(=O)c1ccc(CN(C)C)cc1 (centres unmarked) [Example 30, 2-(4-cyano-2-ethyl-6-isopropylphenyl)-N-(4-((dimethylamino)methyl)phenyl-sulfonimidoyl)acetamide]
1 to 5 µM |  | CC(C)c1cc(F)cc(C2CC2)c1CC(=O)N=S(N)(=O)c1ccc(CN(C)C)cc1F (centres unmarked) [Example 31, 2-(2-cyclopropyl-4-fluoro-6-isopropylphenyl)-N-(4-((dimethylamino)methyl)-2-fluorophenylsulfonimidoyl) acetamide]
5 to 30 µM |  | CC(C)c1cc(C#N)cc(C2CC2)c1CC(=O)N=S(N)(=O)c1ccc(CN(C)C)cc1F (centres unmarked) [Example 32, 2-(4-cyano-2-cyclopropyl-6-isopropylphenyl)-N-(4-((dimethylamino)methyl)-2-fluorophenylsulfonimidoyl) acetamide]
0.2 to 1 µM |  | CC(C)c1cc(C(F)F)cc(C(C)C)c1CC(=O)N=S(N)(=O)c1ccc(C(C)(C)O)cc1F (centres unmarked) [Example 33, 2-(4-(difluoromethyl)-2,6-diisopropylphenyl)-N-(2-fluoro-4-(2-hydroxypropan-2-yl)phenylsulfonimidoyl)acetamide]
1 to 5 µM |  | CC(C)c1cc(C#N)cc(C(C)C)c1CC(=O)N=S(N)(=O)c1ccc(C(C)(C)O)cc1Cl (centres unmarked) [Example 34, N-(2-chloro-4-(2-hydroxypropan-2-yl)phenylsulfonimidoyl)-2-(4-cyano-2,6-diisopropylphenyl)acetamide]
0.2 to 1 µM |  | CC(C)c1cc(C(F)F)cc(C(C)C)c1CC(=O)N=S(N)(=O)c1ccc(CN(C)C)cc1F (centres unmarked) [Example 35, 2-(4-(difluoromethyl)-2,6-diisopropylphenyl)-N-(4-((dimethylamino)methyl)-2-fluorophenylsulfonimidoyl) acetamide]
0.2 to 1 µM |  | CCc1cc(OC(F)F)cc(C(C)C)c1CC(=O)N=S(N)(=O)c1sc(C(C)(C)O)cc1F (centres unmarked) [Example 36, 2-(4-(difluoromethoxy)-2-ethyl-6-isopropylphenyl)-N-(3-fluoro-5-(2-hydroxypropan-2-yl)thiophene-2-sulfonimidoyl)acetamide]
0.04 to 0.2 µM |  | CC(C)c1cc(C(F)F)cc(C(C)C)c1CC(=O)N=S(N)(=O)c1sc(C(C)(C)O)cc1F (centres unmarked) [Example 37, 2-(4-(difluoromethyl)-2,6-diisopropylphenyl)-N-(3-fluoro-5-(2-hydroxypropan-2-yl)thiophene-2-sulfonimidoyl)acetamide]
0.2 to 1 µM |  | CC(C)c1cc(C#N)cc(C(C)C)c1CC(=O)N=S(N)(=O)c1ncc(C(C)(C)O)s1 (centres unmarked) [Example 38, 2-(4-cyano-2,6-diisopropylphenyl)-N-(5-(2-hydroxypropan-2-yl)thiazole-2-sulfonimidoyl)acetamide]
0.2 to 1 µM |  | Cc1nc(C(C)(C)O)sc1S(N)(=O)=NC(=O)Cc1c(C(C)C)cc(OC(F)F)cc1C(C)C (centres unmarked) [Example 39, 2-(4-(difluoromethoxy)-2,6-diisopropylphenyl)-N-(2-(2-hydroxypropan-2-yl)-4-methylthiazole-5-sulfonimidoyl)acetamide]
0.2 to 1 µM |  | Cc1nc(C(C)(C)O)sc1S(N)(=O)=NC(=O)Cc1c(C(C)C)cc(C#N)cc1C(C)C (centres unmarked) [Example 40, 2-(4-cyano-2,6-diisopropylphenyl)-N-(2-(2-hydroxypropan-2-yl)-4-methylthiazole-5-sulfonimidoyl)acetamide]
5 to 30 µM |  | CC(C)c1ccc(F)c(C(C)C)c1CC(=O)N=S(N)(=O)c1ccc2c(cnn2C)c1 (centres unmarked) [Example 90, N-(amino(1-methyl-1H-indazol-5-yl)(oxo)-λ^6-sulfaneylidene)-2-(3-fluoro-2,6-diisopropylphenyl)acetamide]

IC50 (class symbols) | IC50 (given as numeric bound) | SMILES
5 to 30 µM |  | CC(C)c1ccc(F)c(C(C)C)c1CC(=O)N=S(N)(=O)c1ccc(CN(C)C)cn1 (centres unmarked) [Example 91, N-(amino(5-((dimethylamino)methyl)pyridin-2-yl)(oxo)-λ^6-sulfaneylidene)-2-(3-fluoro-2,6-diisopropylphenyl)acetamide]
 | > 30 µM | CC(C)c1cncc(C(C)C)c1CC(=O)NS(=O)(=O)c1sc(C(C)(C)O)nc1CO [Example 92, 2-(3,5-diisopropylpyridin-4-yl)-N-((4-(hydroxymethyl)-2-(2-hydroxypropan-2-yl)thiazol-5-yl)sulfonyl)acetamide]
 | > 30 µM | CC(C)c1cc(C2(O)COC2)cc(C(C)C)c1CC(=O)N=S(N)(=O)c1ncc(C(C)(C)O)s1 (centres unmarked) [Example 93, N-(amino(5-(2-hydroxypropan-2-yl)thiazol-2-yl)(oxo)-λ^6-sulfaneylidene)-2-(4-(3-hydroxyoxetan-3-yl)-2,6-diisopropylphenyl)acetamide]
1 to 5 µM |  | CC(C)c1cc(C2(F)COC2)cc(C(C)C)c1CC(=O)N=S(N)(=O)c1ncc(C(C)(C)O)s1 (centres unmarked) [Example 94, N-(amino(5-(2-hydroxypropan-2-yl)thiazol-2-yl)(oxo)-λ^6-sulfaneylidene)-2-(4-(3-fluorooxetan-3-yl)-2,6-diisopropylphenyl)acetamide]
0.2 to 1 µM |  | CCCc1cc(F)cc(CCC)c1CC(=O)N=S(N)(=O)c1cnc(C(C)(C)O)s1 (centres unmarked) [Example 95, N-(amino(2-(2-hydroxypropan-2-yl)thiazol-5-yl)(oxo)-λ^6-sulfaneylidene)-2-(4-fluoro-2,6-dipropylphenyl)acetamide]
 | > 30 µM | CC(C)c1cc(F)cc(C(C)C)c1C(C)C(=O)N=S(N)(=O)c1cnc(C(C)(C)O)s1 (centres unmarked) [Example 96, N-(amino(2-(2-hydroxypropan-2-yl)thiazol-5-yl)(oxo)-λ^6-sulfaneylidene)-2-(4-fluoro-2,6-diisopropylphenyl)propanamide]
0.2 to 1 µM |  | CC(C)c1cc(-c2ccc3c(c2)COCC3)cc(C(C)C)c1CC(=O)N=S(N)(=O)c1cnc(C(C)(C)O)s1 (centres unmarked) [Example 97, N-(amino(2-(2-hydroxypropan-2-yl)thiazol-5-yl)(oxo)-λ^6-sulfaneylidene)-2-(4-(isochroman-7-yl)-2,6-diisopropylphenyl)acetamide]
5 to 30 µM |  | CC(C)(O)c1ncc(S(N)(=O)=NC(=O)Cc2c(C3CC3)cc(F)cc2C(F)(F)F)s1 (centres unmarked) [Example 98]
1 to 5 µM |  | CC(C)c1nc(-c2cccc(C(F)(F)F)c2)c(F)c(C(C)C)c1CC(=O)N=S(=O)(NC(=O)OC(C)(C)C)c1cnc(C(C)(C)O)s1 (centres unmarked) [Example 99, tert-butyl (N-(2-(5-fluoro-2,4-diisopropyl-6-(3-(trifluoromethyl)phenyl)pyridin-3-yl)acetyl)-2-(2-hydroxypropan-2-yl)thiazole-5-sulfonimidoyl)carbamate]
0.2 to 1 µM |  | CC(C)c1nc(-c2cccc(C(F)(F)F)c2)c(F)c(C(C)C)c1CC(=O)N=S(N)(=O)c1cnc(C(C)(C)O)s1 (centres unmarked) [Example 100]
5 to 30 µM |  | CC(C)c1ncc(F)c(C(C)C)c1CC(=O)N=S(N)(=O)c1ccc(CN(C)C)cc1 (centres unmarked) [Example 101, N-(amino(4-((dimethylamino)methyl)phenyl)(oxo)-λ^6-sulfaneylidene)-2-(5-fluoro-2,4-diisopropylpyridin-3-yl)acetamide]
5 to 30 µM |  | CC(C)c1cc(F)cc(C2CCOC2)c1CC(=O)N=S(N)(=O)c1cnc(C(C)(C)O)s1 (centres unmarked) [Example 102, N-(amino(2-(2-hydroxypropan-2-yl)thiazol-5-yl)(oxo)-λ^6-sulfaneylidene)-2-(4-fluoro-2-isopropyl-6-(tetrahydrofuran-3-yl)phenyl)acetamide]
0.2 to 1 µM |  | CC(C)c1ccc(F)c(C(C)C)c1CC(=O)N=S(N)(=O)c1cnc(C(C)(C)O)s1 (centres unmarked) [Example 103, N-(amino(2-(2-hydroxypropan-2-yl)thiazol-5-yl)(oxo)-λ^6-sulfaneylidene)-2-(3-fluoro-2,6-diisopropylphenyl)acetamide]
0.2 to 1 µM |  | CC(C)c1c(F)c(Cl)cc(C2CC2)c1CC(=O)N=S(N)(=O)c1cnc(C(C)(C)O)s1 (centres unmarked) [Example 104, N-(amino(2-(2-hydroxypropan-2-yl)thiazol-5-yl)(oxo)-λ^6-sulfaneylidene)-2-(4-chloro-6-cyclopropyl-3-fluoro-2-isopropylphenyl)acetamide]
0.04 to 0.2 µM |  | COCc1cc(C(C)C)c(CC(=O)N=S(N)(=O)c2cc(C(C)(C)O)cs2)c(C(C)C)c1 (centres unmarked) [Example 105, N-(amino(4-(2-hydroxypropan-2-yl)thiophen-2-yl)(oxo)-λ^6-sulfaneylidene)-2-(2,6-diisopropyl-4-(methoxymethyl)phenyl) acetamide]
0.04 to 0.2 µM |  | CC(C)c1ccc(F)c(C(C)C)c1CC(=O)N=S(N)(=O)c1cc(C(C)(C)O)cs1 (centres unmarked) [Example 106, N-(amino(4-(2-hydroxypropan-2-yl)thiophen-2-yl)(oxo)-λ^6-sulfaneylidene)-2-(3-fluoro-2,6-diisopropylphenyl)acetamide]
